Some test systems named below: UACC-62 melanoma; NCI-H23 lung; SNB-75 CNS; OVCAR-4 ovarian; HOP-92 NSCLC; RXF 393 renal; RPMI-8226 leukemia; NCI/ADR-RES ovarian; OVCAR-5 ovarian; EKVX NSCLC.
Common to all, as to assay: inhibition of tumour cell growth, NCI panel, 48 h

Several values for one entry are separate records, joined by “and”; a condition that tells them apart may be missing. Equal values may be shown once.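 Protocol summary: plate cells (96-well), add compound at 5 concentrations, incubate 48 h, interpolate endpoints linearly. Here, GI50 denotes the concentration required for 50% inhibition of growth. TGI: concentration producing complete growth inhibition.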

Turning to `c1cc(OCCN2CCCC2)ccc1CNc1ccc2nc(CCC3CCCCC3)[nH]c2c1`, the GI50 in the assay with UACC-62 melanoma is 1850 nM; in the assay on NCI-H23 lung, 2450 nM; in the assay with SNB-75 CNS it was 1270 nM; with OVCAR-4 ovarian, 2640 nM; in the assay with HOP-92 NSCLC, 471 nM; in the assay with RXF 393 renal it was 1320 nM. In addition, the GI50 with RPMI-8226 leukemia was 1350 nM; in the assay on NCI/ADR-RES ovarian, 2760 nM; in the assay on OVCAR-5 ovarian, 2190 nM; in the assay on EKVX NSCLC, 1860 nM. Further, the TGI with UACC-62 melanoma was determined as 3330 nM; in the assay on NCI-H23 lung, 8170 nM; with SNB-75 CNS, 3310 nM; with OVCAR-4 ovarian it was 12700 nM; with HOP-92 NSCLC, 2250 nM; in the assay with RXF 393 renal it was 3230 nM. For the same compound, the TGI turned out to be 3640 nM with RPMI-8226 leukemia, 10700 nM with NCI/ADR-RES ovarian, 6590 nM with OVCAR-5 ovarian and 6510 nM in the assay with EKVX NSCLC.

For `COc1cc2c3c(n(CCCN=[N+]=[N-])c(=O)c2cc1OC)-c1ccc(F)cc1C3=O`, the GI50 with UACC-62 melanoma was 5270 nM; in the assay with NCI-H23 lung, 14100 nM; in the assay with SNB-75 CNS it was 21100 nM; in the assay with OVCAR-4 ovarian, 55900 nM; in the assay on HOP-92 NSCLC it was 2270 nM; in the assay with RXF 393 renal, greater than 100000 nM. The GI50 is 1700 nM in the assay with RPMI-8226 leukemia, 7440 nM with NCI/ADR-RES ovarian, greater than 100000 nM in the assay on OVCAR-5 ovarian and 89400 nM in the assay with EKVX NSCLC. The TGI was greater than 100000 nM with UACC-62 melanoma; greater than 100000 nM in the assay on NCI-H23 lung; 90200 nM with SNB-75 CNS; greater than 100000 nM with OVCAR-4 ovarian; 8150 nM in the assay on HOP-92 NSCLC; greater than 100000 nM with RXF 393 renal. Besides, the TGI in the assay with RPMI-8226 leukemia is 10800 nM; with NCI/ADR-RES ovarian, greater than 100000 nM; with OVCAR-5 ovarian it was greater than 100000 nM; with EKVX NSCLC it was greater than 100000 nM.

As to `CCn1nc(C2CCN(C(=O)CCO)CC2)nc1-c1cnc(N)c(-c2nnc(C(C)(C)C)o2)n1`, the GI50 in the assay on UACC-62 melanoma was 2070 nM; with NCI-H23 lung, 26100 nM; in the assay on SNB-75 CNS, 155 nM; in the assay on OVCAR-4 ovarian, 53700 nM; in the assay with HOP-92 NSCLC, 208 nM; with RXF 393 renal it was 2450 nM. The GI50 in the assay with RPMI-8226 leukemia is 28000 nM; with NCI/ADR-RES ovarian, 14600 nM; in the assay with OVCAR-5 ovarian, 3170 nM; in the assay on EKVX NSCLC, 6690 nM. The TGI in the assay on UACC-62 melanoma was greater than 100000 nM; in the assay with NCI-H23 lung, greater than 100000 nM; in the assay on SNB-75 CNS it was greater than 100000 nM; in the assay with OVCAR-4 ovarian it was greater than 100000 nM; in the assay with HOP-92 NSCLC, greater than 100000 nM; with RXF 393 renal it was 20900 nM. Besides, the TGI was greater than 76700 nM in the assay with RPMI-8226 leukemia, greater than 100000 nM in the assay with NCI/ADR-RES ovarian, greater than 100000 nM in the assay with OVCAR-5 ovarian and greater than 100000 nM with EKVX NSCLC.

Take `CC(=O)O[C@@H]1c2c(c3c(=O)c4cccc(O)c4c(=O)c=3c2=[N+]=[N-])[C@H](OC(C)=O)[C@@H](OC(C)=O)[C@]1(C)O`: the GI50 in the assay with UACC-62 melanoma was 297 nM; with NCI-H23 lung, 411 nM; with SNB-75 CNS, 582 nM; with HOP-92 NSCLC, 172 nM; with RXF 393 renal, 147 nM; in the assay on OVCAR-5 ovarian, 613 nM. Besides, the GI50 in the assay with EKVX NSCLC was 122 nM. For the same compound, the TGI in the assay with UACC-62 melanoma is 1350 nM and 1020 nM; with NCI-H23 lung, 1770 nM and 1590 nM; in the assay with SNB-75 CNS it was 851 nM and 1690 nM; in the assay with OVCAR-4 ovarian, 4320 nM and 2160 nM; in the assay on HOP-92 NSCLC, 1840 nM and 355 nM; in the assay with RXF 393 renal, 1280 nM and 296 nM. The TGI is 361 nM and 394 nM with RPMI-8226 leukemia; 658 nM in the assay with NCI/ADR-RES ovarian; 1230 nM and 1350 nM in the assay on OVCAR-5 ovarian; 1380 nM and 663 nM in the assay on EKVX NSCLC.
